Results on one compound are retold here after ChEMBL document CHEMBL3352333, “Structural evidence of N6-isopentenyladenosine as a new ligand of farnesyl pyrophosphate synthase” (J Med Chem, 2014).

pKd: −log10 of the molar value. Active and inactive are the calls of the source. No cut-off for these calls is given here.

As usually defined, the pKd is −log10 of the Kd, conventionally taken in molar units.

The target of assay [1] is T1, Farnesyl pyrophosphate synthase (Homo sapiens, UniProt P14324).
T1 sequence (P14324 whole entry): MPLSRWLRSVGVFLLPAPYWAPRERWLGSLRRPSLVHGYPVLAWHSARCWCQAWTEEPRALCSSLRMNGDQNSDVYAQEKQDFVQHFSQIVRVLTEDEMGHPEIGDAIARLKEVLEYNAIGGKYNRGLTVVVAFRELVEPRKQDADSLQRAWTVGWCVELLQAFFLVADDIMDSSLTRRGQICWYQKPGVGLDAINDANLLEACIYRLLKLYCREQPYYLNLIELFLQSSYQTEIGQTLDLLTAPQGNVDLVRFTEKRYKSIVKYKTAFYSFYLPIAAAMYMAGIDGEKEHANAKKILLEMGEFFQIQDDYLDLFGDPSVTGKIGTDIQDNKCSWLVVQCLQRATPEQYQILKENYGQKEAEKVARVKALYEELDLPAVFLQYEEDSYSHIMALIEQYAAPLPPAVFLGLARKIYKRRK
Briefly: Binding affinity to FPPS (unknown origin) expressed in Escherichia coli BL21(DEscherichia ) assessed as binding constant of proton H14-H15 of isopentenylic moiety by saturation transfer difference NMR analysis.

Assay [2] concerns the target T1, Farnesyl pyrophosphate synthase. As to the kind of experiment: Binding affinity to FPPS (unknown origin) expressed in Escherichia coli BL21(DEscherichia ) assessed as binding constant of proton H11 of isopentenylic moiety by saturation transfer difference NMR analysis.
In assay [3] the target is T2, Farnesyl pyrophosphate synthase (Homo sapiens) (UniProt P14324).
T2 sequence (whole entry): T1 sequence (P14324 whole entry)
As to the kind of experiment: Binding affinity to FPPS (unknown origin) expressed in Escherichia coli BL21(DEscherichia ) at protein/ligand 1:10 to 1:100 molar ratio by WaterLOGSY 1D 1H NMR analysis.

Assay [4] has as its target T1, Farnesyl pyrophosphate synthase. Briefly: Binding affinity to FPPS (unknown origin) expressed in Escherichia coli BL21(DEscherichia ) assessed as binding constant of proton H12 of isopentenylic moiety by saturation transfer difference NMR analysis.
For assay [5], the target named is T2, Farnesyl pyrophosphate synthase (Homo sapiens). As to the kind of experiment: Binding affinity to FPPS (unknown origin) expressed in Escherichia coli BL21(DEscherichia ) at protein/ligand 1:10 to 1:100 molar ratio by WaterLOGSY NMR analysis.
Assay [6] shares this target. Briefly: Binding affinity to FPPS (unknown origin) expressed in Escherichia coli BL21(DEscherichia ) at protein/ligand 1:10 to 1:100 molar ratio by 2D COSY NMR analysis.
The target of assay [7] is T1, Farnesyl pyrophosphate synthase. As to the kind of experiment: Binding affinity to FPPS (unknown origin) expressed in Escherichia coli BL21(DEscherichia ) assessed as binding constant of proton H2/H8 of purine ring by saturation transfer difference NMR analysis.
Assay [8] concerns the target T2, Farnesyl pyrophosphate synthase (Homo sapiens). As to the kind of experiment: Binding affinity to FPPS (unknown origin) expressed in Escherichia coli BL21(DEscherichia ) at protein/ligand 1:10 to 1:100 molar ratio by saturation transfer difference NMR analysis.

For the compound `CC(C)=CCNc1ncnc2c1ncn2[C@@H]1O[C@H](CO)[C@@H](O)[C@H]1O` [RIBOPRINE], the negative-log Kd (pKd) in assay [1] is 2.92; in assay [2], 3.26; in assay [4] it was 2.66; in assay [7], 2.69. Further, the result in assay [3], in assay [5], in assay [6] and in assay [8] was Active.
